Results reported in patent US9481676B2, “Azepino[4,5-B]indoles and methods of use” (Medivation Technologies, Inc., priority 2008, dated 2016).

Key:
[1] = tested on: neurite outgrowth and neurogenesis; conditions: cited from earlier work
brain cells (neurons) = conditions: preclinical models of Alzheimer's disease and Huntington's disease; cited from earlier work
[2] = tested on: cells treated with the cell toxin ionomycin; conditions: cited from earlier work
[3] = target: T1, human recombinant serotonin (5-Hydroxytryptamine) 5-HT6 receptor (Homo sapiens, UniProt P50406); assay: Serotonin 5-HT6 radioligand binding ([3H]LSD); conditions: compound at 1 μM; read-out: Serotonin (1 μM) 5-HT6, percent inhibition of specific binding
T1 construct: expressed in transfected cells; host or cells: human HeLa cells
Experimental: To evaluate in radioligand binding assays the activity of compounds of the invention, human recombinant serotonin (5-Hydroxytryptamine) 5-HT6 receptor expressed in human HeLa cells (Monsma, F. J. Jr. et al., Mol. Pharmacol. 43:320, 1993) in a modified Tris-HCl buffer (50 mM Tris-HCl, pH 7.4, 150 mM NaCl, 2 mM Ascorbic Acid, 0.001% BSA) was used. Compounds of the invention were incubated with 1.5 nM [3H]Lysergic acid diethylamide (LSD) for 120 min. at 37° C. Non-specific binding was estimated in the presence of 5 μM Serotonin (5-HT). Receptor proteins were filtered and washed, the filters were then counted to determine [3H]LSD specifically bound. Compounds were screened at 1 μM or lower, using 1% DMSO as vehicle. Biochemical assay results are presented as the percent inhibition of specific binding in Table 6.

[4] = target: T2, human recombinant histamine H2 receptor (Homo sapiens, UniProt P25021); assay: Histamine H2 radioligand binding ([125I]Aminopotentidine); conditions: compound at 1 μM; read-out: Histamine Binding (1 μM) H2, percent inhibition of specific binding
T2 construct: expressed in transfected cells; host or cells: CHO-K1 cells
Experimental: To evaluate in radioligand binding assays the activity of compounds of the invention, human recombinant histamine H2 receptor expressed in Chinese hamster ovary (CHO) K1 cells (Ruat, M., Proc. Natl. Acad. Sci. USA. 87(5):1658, 1990) in a 50 mM Phosphate buffer, pH 7.4 was used. Compounds of the invention were incubated with 0.1 nM [^125I]Aminopotentidine for 120 min. at 25° C. Non-specific binding was estimated in the presence of 3 μM Tiotidine. Receptor proteins were filtered and washed, the filters were then counted to determine [^125I]Aminopotentidine specifically bound. Compounds were screened at 1 μM or lower, using 1% DMSO as vehicle. Biochemical assay results are presented as the percent inhibition of specific binding in Table 6.

[5] = target: T3, human recombinant dopamine D2L receptor (Homo sapiens, UniProt P14416); assay: Dopamine D2L radioligand binding ([3H]Spiperone); conditions: compound at 1 μM; read-out: Dopamine (1 μM) D2L, percent inhibition of specific binding
T3 construct: expressed in transfected cells; host or cells: CHO cells
Experimental: To evaluate in radioligand binding assays the activity of compounds of the invention, human recombinant dopamine D2L receptor expressed in Chinese hamster ovary (CHO) cells (Grandy, D. K. et al. Proc. Natl. Acad. Sci. USA. 86:9762, 1989; Hayes, G. et al., Mol. Endocrinol. 6:920, 1992) in a modified Tris-HCl buffer (50 mM Tris-HCl, pH 7.4, 1.4 mM Ascorbic Acid, 0.001% BSA, 150 mM NaCl) was used. Compounds of the invention were incubated with 0.16 nM [^3H]Spiperone for 120 min. at 25° C. Non-specific binding was estimated in the presence of 10 μM Haloperidol. Receptor proteins were filtered and washed, the filters were then counted to determine [^3H]Spiperone specifically bound. Compounds were screened at 1 μM or lower, using 1% DMSO as vehicle. Biochemical assay results are presented as the percent inhibition of specific binding in Table 5.

[6] = target: T4, human recombinant serotonin (5-Hydroxytryptamine) 5-HT2A receptor (Homo sapiens, UniProt P28223); assay: Serotonin 5-HT2A radioligand binding ([3H]Ketanserin); conditions: compound at 1 μM; read-out: Serotonin (1 μM) 5-HT2A, percent inhibition of specific binding
T4 construct: expressed in transfected cells; host or cells: CHO-K1 cells
Experimental: To evaluate in radioligand binding assays the activity of compounds of the invention, human recombinant serotonin (5-Hydroxytryptamine) 5-HT2A receptor expressed in Chinese hamster ovary (CHO-K1) cells (Bonhaus, D. W. et al. Br. J. Pharmacol. 115:622, 1995; Saucier, C. and Albert, P. R., J. Neurochem. 68:1998, 1997) in a 50 mM Tris-HCl buffer, pH 7.4, was used. Compounds of the invention were incubated with 0.5 nM [^3H]Ketanserin for 60 min. at 25° C. Non-specific binding was estimated in the presence of 1 μM Mianserin. Receptor proteins were filtered and washed, the filters were then counted to determine [^3H]Ketanserin specifically bound. Compounds were screened at 1 μM or lower, using 1% DMSO as vehicle. Biochemical assay results are presented as the percent inhibition of specific binding in Table 6.

[7] = target: T5, human recombinant serotonin (5-Hydroxytryptamine) 5-HT2C receptor (Homo sapiens, UniProt P28335); assay: Serotonin 5-HT2C radioligand binding ([3H]Mesulergine); conditions: compound at 1 μM; read-out: Serotonin (1 μM) 5-HT2C, percent inhibition of specific binding
T5 construct: expressed in transfected cells; host or cells: CHO-K1 cells
T5 sequence (P28335 33-458): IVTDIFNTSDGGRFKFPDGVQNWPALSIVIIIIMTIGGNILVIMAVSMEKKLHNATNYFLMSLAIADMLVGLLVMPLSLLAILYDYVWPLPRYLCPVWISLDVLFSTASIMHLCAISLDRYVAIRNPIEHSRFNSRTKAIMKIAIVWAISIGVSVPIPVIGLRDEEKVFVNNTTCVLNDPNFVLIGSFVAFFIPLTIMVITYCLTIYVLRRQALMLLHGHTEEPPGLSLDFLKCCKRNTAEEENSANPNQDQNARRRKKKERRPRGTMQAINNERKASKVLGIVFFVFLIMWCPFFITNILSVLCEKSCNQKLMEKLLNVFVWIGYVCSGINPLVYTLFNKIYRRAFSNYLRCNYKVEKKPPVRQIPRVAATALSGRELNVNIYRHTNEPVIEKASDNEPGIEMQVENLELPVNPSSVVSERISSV
Experimental: To evaluate in radioligand binding assays the activity of compounds of the invention, human recombinant serotonin (5-Hydroxytryptamine) 5-HT2C receptor expressed in Chinese hamster ovary (CHO-K1) cells (Wolf, W. A. and Schutz, J. S., J. Neurochem. 69:1449, 1997) in a modified Tris-HCl buffer (50 mM Tris-HCl, pH 7.4, 0.1% Ascorbic Acid, 10 μM Pargyline) was used. Compounds of the invention were incubated with 1 nM [^3H]Mesulergine for 60 min. at 25° C. Non-specific binding was estimated in the presence of 1 μM Mianserin. Receptor proteins were filtered and washed, the filters were then counted to determine [^3H]Mesulergine specifically bound. Compounds were screened at 1 μM or lower, using 1% DMSO as vehicle. Biochemical assay results are presented as the percent inhibition of specific binding in Table 6.

[8] = target: T6, human recombinant histamine H1 receptor (Homo sapiens, UniProt P35367); assay: Histamine H1 radioligand binding ([3H]Pyrilamine); conditions: compound at 1 μM; read-out: Histamine Binding (1 μM) H1, percent inhibition of specific binding
T6 construct: expressed in transfected cells; host or cells: CHO cells
Experimental: To evaluate in radioligand binding assays the activity of compounds of the invention, human recombinant histamine H1 receptor expressed in Chinese hamster ovary (CHO) cells (De Backer, M. D. et al., Biochem. Biophys. Res. Comm. 197(3):1601, 1993) in a modified Tris-HCl buffer (50 mM Tris-HCl, pH 7.4, 2 mM MgCl2, 100 mM NaCl, 250 mM Sucrose) was used. Compounds of the invention were incubated with 1.2 nM [^3H]Pyrilamine for 180 min. at 25° C. Non-specific binding was estimated in the presence of 1 μM pyrilamine. Receptor proteins were filtered and washed, the filters were then counted to determine [^3H]Pyrilamine specifically bound. Compounds were screened at 1 μM or lower, using 1% DMSO as vehicle. Biochemical assay results are presented as the percent inhibition of specific binding in Table 6.

[9] = after treatment with the cell toxin ionomycin

T6 sequence (P35367 whole entry): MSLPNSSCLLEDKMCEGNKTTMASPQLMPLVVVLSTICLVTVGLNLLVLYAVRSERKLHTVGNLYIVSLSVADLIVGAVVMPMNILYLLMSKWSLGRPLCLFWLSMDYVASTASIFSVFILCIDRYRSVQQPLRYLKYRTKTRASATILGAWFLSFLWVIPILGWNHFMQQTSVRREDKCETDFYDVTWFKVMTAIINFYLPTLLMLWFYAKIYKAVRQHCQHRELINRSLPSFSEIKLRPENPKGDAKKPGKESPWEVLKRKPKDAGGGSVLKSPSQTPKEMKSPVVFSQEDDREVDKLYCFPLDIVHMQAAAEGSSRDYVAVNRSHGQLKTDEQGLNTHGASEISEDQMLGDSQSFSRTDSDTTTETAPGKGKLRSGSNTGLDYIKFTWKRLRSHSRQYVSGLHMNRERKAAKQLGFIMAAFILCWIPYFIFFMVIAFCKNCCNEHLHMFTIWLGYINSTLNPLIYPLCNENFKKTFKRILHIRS
T4 sequence (P28223 whole entry): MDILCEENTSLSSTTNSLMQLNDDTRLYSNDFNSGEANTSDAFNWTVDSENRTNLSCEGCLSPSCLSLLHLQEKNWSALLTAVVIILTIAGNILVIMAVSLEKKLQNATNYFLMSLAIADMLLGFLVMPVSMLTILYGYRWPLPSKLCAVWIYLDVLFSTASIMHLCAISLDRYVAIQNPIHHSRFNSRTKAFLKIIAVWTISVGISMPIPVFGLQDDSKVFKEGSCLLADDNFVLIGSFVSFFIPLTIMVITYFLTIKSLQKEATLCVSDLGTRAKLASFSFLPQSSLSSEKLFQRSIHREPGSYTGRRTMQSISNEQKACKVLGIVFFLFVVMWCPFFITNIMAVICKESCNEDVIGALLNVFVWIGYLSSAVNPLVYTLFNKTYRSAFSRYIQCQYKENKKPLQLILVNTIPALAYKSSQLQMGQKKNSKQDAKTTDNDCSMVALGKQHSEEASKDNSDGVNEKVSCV
T1 sequence (P50406 whole entry): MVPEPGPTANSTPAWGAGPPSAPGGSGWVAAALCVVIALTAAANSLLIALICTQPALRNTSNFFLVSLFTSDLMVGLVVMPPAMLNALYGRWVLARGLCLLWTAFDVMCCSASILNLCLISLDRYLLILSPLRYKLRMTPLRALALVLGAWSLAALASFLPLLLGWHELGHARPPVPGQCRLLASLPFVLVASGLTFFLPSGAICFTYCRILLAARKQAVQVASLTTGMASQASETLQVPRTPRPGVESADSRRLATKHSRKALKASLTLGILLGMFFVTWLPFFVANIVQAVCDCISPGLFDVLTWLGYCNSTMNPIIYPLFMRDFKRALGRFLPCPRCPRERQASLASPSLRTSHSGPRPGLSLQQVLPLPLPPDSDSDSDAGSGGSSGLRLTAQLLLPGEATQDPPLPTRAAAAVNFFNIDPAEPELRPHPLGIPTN
T2 sequence (P25021 whole entry): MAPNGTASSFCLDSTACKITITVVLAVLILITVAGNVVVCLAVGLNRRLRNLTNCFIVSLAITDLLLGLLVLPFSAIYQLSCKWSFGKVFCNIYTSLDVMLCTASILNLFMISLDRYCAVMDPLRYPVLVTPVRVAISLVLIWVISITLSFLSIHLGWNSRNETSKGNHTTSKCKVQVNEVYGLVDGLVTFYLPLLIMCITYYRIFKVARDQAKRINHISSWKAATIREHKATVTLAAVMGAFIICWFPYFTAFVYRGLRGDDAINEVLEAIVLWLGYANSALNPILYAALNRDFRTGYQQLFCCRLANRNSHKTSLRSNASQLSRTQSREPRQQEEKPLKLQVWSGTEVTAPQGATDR
T3 sequence (P14416 whole entry): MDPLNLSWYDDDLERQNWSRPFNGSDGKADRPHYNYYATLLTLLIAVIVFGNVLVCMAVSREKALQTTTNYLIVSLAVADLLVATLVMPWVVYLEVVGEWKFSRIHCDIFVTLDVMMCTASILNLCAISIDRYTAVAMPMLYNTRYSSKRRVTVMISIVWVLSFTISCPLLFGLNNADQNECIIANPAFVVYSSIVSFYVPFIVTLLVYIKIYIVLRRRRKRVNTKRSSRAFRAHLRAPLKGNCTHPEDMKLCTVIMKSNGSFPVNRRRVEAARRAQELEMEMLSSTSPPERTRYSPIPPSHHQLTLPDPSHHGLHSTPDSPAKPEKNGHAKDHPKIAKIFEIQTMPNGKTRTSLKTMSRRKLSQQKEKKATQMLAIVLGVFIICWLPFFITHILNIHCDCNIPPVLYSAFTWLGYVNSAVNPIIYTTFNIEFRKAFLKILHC

Structure (SMILES)	neurite outgrowth and neurogenesis [1]	death of brain cells (neurons) (brain cells (neurons))	mitochondrial function [2, 9]	number of surviving cells [2, 9]	mitochondrial function of cells ([2]; setting of cellular stress)	inhibition at 1 µM [3] [%]	inhibition at 1 µM [4] [%]	inhibition at 1 µM [5] [%]	inhibition at 1 µM [6] [%]	inhibition at 1 µM [7] [%]	inhibition at 1 µM [8] [%]
Cc1ccc2c(c1)c1c(n2CCc2ccc(C)nc2)CCN(C)C1 [Dimebon, dimebon]	promote neurite outgrowth and neurogenesis	inhibit the death of brain cells (neurons)	improved mitochondrial function	increased the number of surviving cells	improve the mitochondrial function of cells in the setting of cellular stress with very high potency						
C/C(=C\n1c2c(c3cc(C)ccc31)CCN(C)CC2)c1ccc(F)c(F)c1 [Compound No. 177, (E)-6-(2-(3,4-difluorophenyl)prop-1-enyl)-1,2,3,4,5,6-hexahydro-3,9-dimethylazepino[4,5-b]indole]						96	92	25	98	99	93
